Test results from US20140206608A1 (priority 2012, published 2014).
pEC50: −log10 of the molar value. *1 amine or outer side, *2 acyl side, *3 side chain or, on linkers, in order; H or OH if unused. Where a SMILES comes first, the peptide text is derived from it. Side-chain parts run from the residue outwards. [ ]: non-standard residue; d: D form. The star is where a group is joined. γGlu = O=C(O)[C@H](CCC(=O)[*:2])N[*:1]; Stearoyl = CCCCCCCCCCCCCCCCCC(=O)*; Aib = CC(C)(N)C(=O)O

Columns and labels:
[1] = tested on: plasmin; test: Enzymatic stability testing versus plasmin; type: in vitro ADME; details: human, human recombinant plasmin, pH 8.3; % of degradation after 120 min; 2 μM peptide, 37° C.; read-out: Lability versus enzymatic degradation, Plasmin
Experimental: (§1) The reaction was stopped by addition of ethanol. The samples were analyzed by LC-MS/MS. […] The metabolic lability is given as % of degradation.

[2] = Subchronic effect on body weight in female diet-induced obese (DIO) C57BL/6NCrl mice (method 2); type: in vivo; details: 3 weeks; for Overall weight change: mean ± SEM
Experimental: Female C57BL/6NCrl mice were housed in groups in a specific pathogen-free barrier facility on a 12 h light/dark cycle with free access to water and high-fat diet. After 14 weeks on high-fat diet, mice were stratified to treatment groups (n=8), so that each group had similar mean body weight.
An aged-matched group with ad libitum access to standard chow and water was included as standard control group.
Before the experiment, mice were subcutaneously (s.c.) injected with vehicle solution and weighed for 3 days to acclimate them to the procedures.
Body weight was recorded daily.
Statistical analyses were performed with Everstat 6.0 by repeated measures two-way ANOVA and Dunnett's post-hoc analyses (glucose profile) and 1-way-ANOVA, followed by Dunnett's post-hoc test (body weight, body fat). Differences versus vehicle-treated DIO control mice were considered statistically significant at the p<0.05 level.

[3] = in vivo; details: mouse, plasma, sc, 1 mg/kg
Experimental: Mice were dosed 1 mg/kg subcutaneously (s.c.). The mice were sacrificed and blood samples were collected after 0.25, 0.5, 1, 2, 4, 8, 16 and 24 hours post application. Plasma samples were analyzed after protein precipitation via liquid chromatography mass spectrometry (LC/MS). PK parameters and half-life were calculated using WinonLin Version 5.2.1 (non-compartment model).

[4] = target: neprilysin (Homo sapiens, UniProt P08473); test: in vitro; details: human recombinant neprilysin, pH 7.5
Chain of neprilysin (P08473 whole entry): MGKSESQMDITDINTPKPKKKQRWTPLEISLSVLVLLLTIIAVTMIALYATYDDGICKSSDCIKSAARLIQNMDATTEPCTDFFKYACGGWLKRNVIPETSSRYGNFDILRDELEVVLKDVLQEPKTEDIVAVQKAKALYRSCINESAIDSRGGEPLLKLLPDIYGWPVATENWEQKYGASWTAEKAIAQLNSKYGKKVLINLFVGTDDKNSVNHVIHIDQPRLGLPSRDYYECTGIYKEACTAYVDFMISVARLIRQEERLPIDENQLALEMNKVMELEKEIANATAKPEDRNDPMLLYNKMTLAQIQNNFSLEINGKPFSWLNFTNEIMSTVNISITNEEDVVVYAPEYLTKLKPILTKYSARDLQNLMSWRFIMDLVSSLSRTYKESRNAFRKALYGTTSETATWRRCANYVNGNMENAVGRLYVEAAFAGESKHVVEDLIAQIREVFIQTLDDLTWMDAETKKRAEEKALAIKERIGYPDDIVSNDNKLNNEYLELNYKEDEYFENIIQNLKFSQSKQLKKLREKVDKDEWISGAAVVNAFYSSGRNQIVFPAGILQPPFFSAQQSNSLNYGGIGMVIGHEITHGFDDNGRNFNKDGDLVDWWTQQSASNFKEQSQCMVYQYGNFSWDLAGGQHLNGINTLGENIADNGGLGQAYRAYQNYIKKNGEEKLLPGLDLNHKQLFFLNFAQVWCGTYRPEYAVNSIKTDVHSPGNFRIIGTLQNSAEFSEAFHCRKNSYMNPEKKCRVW
Experimental: In the experiment, GLP-1 was used as a positive control. The incubation was started by addition of the enzyme fraction to the pre-warmed buffer solution. […] The reaction was stopped by addition of ethanol. The samples were analyzed by LC-MS/MS. The percentage of biotransformation was measured by extent of depletion of the test compound in mass spectrometry. Therefore the peak area of the MRM ion signal of the 0h time point (100%) versus the incubated time points was measured. The metabolic lability is given as % of degradation.

[5] = tested on: female NMRI-mice; test: Automated assessment of 22-hours feed intake in female NMRI-mice; type: in vivo
Experimental: Female NMRI-mice of a body weight between 20 and 30 g were used. Mice were adapted to housing conditions for at least one week and for at least one day single-caged in the assessment equipment, when basal data were recorded simultaneously. On the study day, test product was administered subcutaneously close to the lights-off phase (12 h lights off) and assessment of feed consumption was directly started afterwards. Assessment included continued monitoring over 22 hours, while data are processed as mean over every 30 min. Repetition of this procedure over several days was possible. Restriction of assessment to 22 hours was for practical reasons to allow for reweighing of animals, refilling of feed and water and drug administration between procedures. Results could be assessed as cumulated data over 22 hours or differentiated to 30 min intervals.
Statistical analyses were performed with Everstat 6.0 by two-way ANOVA on repeated measures and Dunnett's post-hoc analyses. Differences were considered statistically significant at the p<0.05 level.
Lights-off phase (dark phase) started 4 hours later.

[6] = target: T1, human GIP receptor (hGIP R) (Homo sapiens, UniProt P48546); test: cAMP response of HEK-293 cells stably expressing human GIP receptor (HTRF); type: cell-based
T1 construct: expressed in transfected cells; host or cells: HEK-293
T1 sequence (P48546 22-466): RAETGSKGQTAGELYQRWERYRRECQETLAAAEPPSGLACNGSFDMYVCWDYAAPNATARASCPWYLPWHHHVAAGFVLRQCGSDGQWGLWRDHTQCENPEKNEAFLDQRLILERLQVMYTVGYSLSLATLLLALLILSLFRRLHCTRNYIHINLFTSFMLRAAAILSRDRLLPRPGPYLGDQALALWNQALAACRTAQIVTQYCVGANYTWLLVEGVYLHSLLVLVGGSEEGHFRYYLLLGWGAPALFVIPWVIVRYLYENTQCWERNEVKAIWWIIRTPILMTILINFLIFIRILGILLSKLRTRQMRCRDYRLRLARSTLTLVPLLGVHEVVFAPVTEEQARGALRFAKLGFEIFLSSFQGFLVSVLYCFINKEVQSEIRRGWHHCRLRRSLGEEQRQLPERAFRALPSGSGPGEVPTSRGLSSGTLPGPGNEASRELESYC
Experimental: (§2) cAMP content of cells was determined using a kit from Cisbio Corp. (cat. no. 62AM4PEC) based on HTRF (Homogenous Time Resolved Fluorescence). For preparation, cells were split into T175 culture flasks and grown overnight to near confluency in medium (DMEM/10% FBS). Medium was then removed and cells washed with PBS lacking calcium and magnesium, followed by proteinase treatment with accutase (Sigma-Aldrich cat. no. A6964). Detached cells were washed and resuspended in assay buffer (1×HBSS; 20 mM HEPES, 0.1% BSA, 2 mM IBMX) and cellular density determined. They were then diluted to 400000 cells/ml and 25 μl-aliquots dispensed into the wells of 96-well plates. For measurement, 25 μl of test compound in assay buffer was added to the wells, followed by incubation for 30 minutes at room temperature.

[7] = target: T2, human glucagon receptor (hGLUC R) (Homo sapiens, UniProt P47871); test: cAMP response of HEK-293 cells stably expressing human glucagon receptor (HTRF); type: cell-based; details: EC50 hGLUC R, Table 7; cAMP formation
T2 construct: expressed in transfected cells; host or cells: HEK-293
T2 sequence (P47871 26-477): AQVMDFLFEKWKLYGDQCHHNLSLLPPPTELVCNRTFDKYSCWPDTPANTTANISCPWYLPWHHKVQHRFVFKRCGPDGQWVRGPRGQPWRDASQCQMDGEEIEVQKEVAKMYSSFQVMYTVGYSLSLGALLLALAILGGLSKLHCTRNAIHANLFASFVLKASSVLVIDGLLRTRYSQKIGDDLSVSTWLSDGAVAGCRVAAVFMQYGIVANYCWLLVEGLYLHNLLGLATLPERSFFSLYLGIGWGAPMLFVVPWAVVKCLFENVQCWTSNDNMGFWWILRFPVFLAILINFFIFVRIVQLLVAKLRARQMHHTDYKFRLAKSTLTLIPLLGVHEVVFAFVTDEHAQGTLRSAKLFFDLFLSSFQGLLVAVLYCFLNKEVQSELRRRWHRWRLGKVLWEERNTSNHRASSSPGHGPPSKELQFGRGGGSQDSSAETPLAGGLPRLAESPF
Experimental: as §2

[8] = tested on: trypsin; test: Enzymatic stability testing versus trypsin; type: in vitro ADME; details: human, human recombinant trypsin, pH 8.3; % of degradation after 120 min; 2 μM peptide, 37° C.; read-out: Lability versus enzymatic degradation, Trypsin
Experimental: as §1

[9] = tested on: female NMRI-mice; test: Gastric emptying and intestinal passage in female NMRI-mice; type: in vivo
Experimental: Female NMRI-mice of a body weight between 20 and 30 g were used. Mice were adapted to housing conditions for at least one week.
Mice were overnight fasted, while water remained available all the time. On the study day, mice were weighed, single-caged and allowed access to 500 mg of feed for 30 min, while water was removed. At the end of the 30 min feeding period, remaining feed was removed and weighed. Then, the test compound/reference compound or its vehicle in the control group was administered subcutaneously. 60 min later, to allow the compound to reach relevant plasma exposure, a coloured, non-caloric bolus was instilled via gavage into the stomach. After another 30 min, the animals were sacrificed and the stomach and the small intestine prepared. The filled stomach was weighed, emptied, carefully cleaned and dried and reweighed. The stomach content, calculated as weight of filled subtracted by the weight of emptied stomach, indicated the degree of gastric emptying. The small intestine was straightened without force and measured in length. Then the distance from the gastric beginning of the gut to the tip of the farthest travelled intestinal content bolus was measured. The intestinal passage was given as ratio in percent of the latter distance and the total length of the small intestine.
Statistical analyses were performed with Everstat 6.0 by 1-way-ANOVA, followed by Dunnett's as post-hoc test. Dunnett's Test was applied to compare versus vehicle control. Differences were considered statistically significant at the p<0.05 level.
30 min later, the assessment of stomach contents and intestinal passage was done (FIG. 8).

CCCCCCCCCCCCCCCCCC(=O)N[C@@H](CCC(=O)NCCCC[C@H](NC(=O)[C@H](CCC(N)=O)NC(=O)[C@@H](NC(=O)[C@H](CO)NC(=O)[C@H](CC(C)C)NC(=O)[C@H](CC(=O)O)NC(=O)[C@H](CO)NC(=O)[C@@H](NC(=O)[C@H](Cc1ccccc1)NC(=O)[C@@H](NC(=O)CNC(=O)[C@H](CCC(=O)O)NC(=O)C(C)(C)NC(=O)[C@@H](N)Cc1ccc(O)cc1)[C@@H](C)O)[C@@H](C)O)[C@@H](C)CC)C(=O)N[C@@H](CCC(=O)O)C(=O)N[C@@H](CCC(=O)O)C(=O)N[C@@H](CCC(=O)O)C(=O)N[C@@H](C)C(=O)N[C@H](C(=O)N[C@@H](CCCNC(=N)N)C(=O)N[C@@H](CC(C)C)C(=O)N[C@@H](Cc1ccccc1)C(=O)N[C@H](C(=O)N[C@@H](CCC(=O)O)C(=O)N[C@@H](Cc1c[nH]c2ccccc12)C(=O)N[C@@H](CC(C)C)C(=O)N[C@@H](CCCCN)C(=O)N[C@@H](C)C(=O)NCC(=O)NCC(=O)N1CCC[C@H]1C(=O)N[C@@H](CO)C(=O)N[C@@H](CO)C(=O)NCC(=O)N[C@@H](C)C(=O)N1CCC[C@H]1C(=O)N1CCC[C@H]1C(=O)N1CCC[C@H]1C(=O)N[C@@H](CO)C(N)=O)[C@@H](C)CC)C(C)C)C(=O)O [SEQ ID NO: 10, Y-Aib-E-G-T-F-T-S-D-L-S-I-Q-K(γE-x70)-EEEAVRLFIEWLKAGGPSSGAPPPS-NH2] (H-Y[Aib]EGTFTSDLSIQK([γGlu-Stearoyl])EEEAVRLFIEWLKAGGPSSGAPPPS-NH2)
metabolised at 2 h, 2 μM [1]: 0% | decrease of body weight, relative change from baseline ([2]; 3 μg/kg s.c. once daily): 8.6% | Overall weight change ([2]; 3 μg/kg s.c. once daily): -3.6 ± 1.0 g | decrease of body weight, relative change from baseline ([2]; 10 μg/kg s.c. once daily): 14.3% | Overall weight change ([2]; 10 μg/kg s.c. once daily): -5.5 ± 0.8 g | Cmax [3]: 5740 ng/mL | half-life [3]: 258 min | metabolised at 2 h, 2 μM [4]: 0% | reduction of feed intake after 22 hours ([5]; 3 μg/kg s.c., not significant, p=0.78): 19% | reduction of feed intake after 22 hours ([5]; 10 μg/kg s.c., p=0.049): 34% | pEC50 [6]: 11.17 | pEC50 [7]: < 6.00 | metabolised at 2 h, 2 μM [8]: 33% | increase of remaining gastric contents ([9]; 1 μg/kg s.c.): 1% | reduction of intestinal passage ([9]; 1 μg/kg s.c.): 28% | increase of remaining gastric contents ([9]; 10 μg/kg s.c.): 28% | reduction of intestinal passage ([9]; 10 μg/kg s.c.): 58% | increase of remaining gastric contents ([9]; 100 μg/kg s.c.): 68% | reduction of intestinal passage ([9]; 100 μg/kg s.c.): 64%
